Legend:
Assay in all cases: relative viability (nuclei count vs DMSO), 5 days (fraction); higher = more cells survive
[1] = tested on: NCI-H1975
In short: (§1)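 Lung cancer cell lines were pin-tool dosed in 1536-well plates on the day after seeding, with either a lone drug or a fixed anchor-drug dose plus five library-drug doses (not always all listed) in √10 steps. Nuclei were counted on 4× images after 5 days. Relative viability is the ratio of treated-well to vehicle-well nuclei counts, with each value a median of duplicate plates.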

[2] = tested on: NCI-H322M
In short: as §1

[3] = tested on: NCI-H3122
In short: as §1

[4] = tested on: NCI-H23
In short: as §1

[5] = tested on: NCI-H596
In short: as §1

[6] = tested on: NCI-H727
In short: as §1

[7] = tested on: BEN
In short: as §1

[8] = tested on: UMC-11
In short: as §1

[9] = tested on: NCI-H2405
In short: as §1

[10] = tested on: EPLC-272H
In short: as §1

[11] = tested on: NCI-H1792
In short: as §1

[12] = tested on: NCI-H647
In short: as §1

[13] = tested on: NCI-H520
In short: as §1

[14] = tested on: NCI-H2170
In short: as §1

[15] = tested on: NCI-H358
In short: as §1

[16] = tested on: HOP-62
In short: as §1

[17] = tested on: NCI-H1666
In short: as §1

[18] = tested on: NCI-H1355
In short: as §1

[19] = tested on: LU99A
In short: as §1

[20] = tested on: NCI-H838
In short: as §1

[21] = tested on: HCC-827
In short: as §1

[22] = tested on: PC-14
In short: as §1

## Cc1cnc(-c2cnc(NCCNc3ccc(C#N)cn3)nc2-c2ccc(Cl)cc2Cl)[nH]1 + CC(=O)Nc1cccc(-n2c(=O)n(C3CC3)c(=O)c3c(Nc4ccc(I)cc4F)n(C)c(=O)c(C)c32)c1 [Trametinib] (partner 0.02 µM)
[1]; first compound 0.08 µM
  relative viability: 0.35
[1]; first compound 0.253 µM
  relative viability: 0.383
[1]; first compound 0.8 µM
  relative viability: 0.353
[1]; first compound 2.53 µM
  relative viability: 0.339
[2]; first compound 0.08 µM
  relative viability: 0.563
[2]; first compound 0.253 µM
  relative viability: 0.558
[2]; first compound 0.8 µM
  relative viability: 0.468
[2]; first compound 2.53 µM
  relative viability: 0.516
[3]; first compound 0.08 µM
  relative viability: 0.262
[3]; first compound 0.8 µM
  relative viability: 0.246
[3]; first compound 2.53 µM
  relative viability: 0.233
[4]; first compound 0.08 µM
  relative viability: 0.412
[4]; first compound 0.253 µM
  relative viability: 0.339
[4]; first compound 0.8 µM
  relative viability: 0.451
[4]; first compound 2.53 µM
  relative viability: 0.882
[5]; first compound 0.08 µM
  relative viability: 0.877
[5]; first compound 0.253 µM
  relative viability: 0.704
[5]; first compound 0.8 µM
  relative viability: 0.782
[5]; first compound 2.53 µM
  relative viability: 0.91
[6]; first compound 0.08 µM
  relative viability: 0.384
[6]; first compound 0.253 µM
  relative viability: 0.375
[6]; first compound 0.8 µM
  relative viability: 0.404
[6]; first compound 2.53 µM
  relative viability: 0.393
[7]; first compound 0.08 µM
  relative viability: 1.25
[7]; first compound 0.253 µM
  relative viability: 0.879
[7]; first compound 0.8 µM
  relative viability: 1.04
[7]; first compound 2.53 µM
  relative viability: 1.42
[8]; first compound 0.08 µM
  relative viability: 0.891
[8]; first compound 0.253 µM
  relative viability: 0.525
[8]; first compound 0.8 µM
  relative viability: 0.377
[8]; first compound 2.53 µM
  relative viability: 0.82
[9]; first compound 0.08 µM
  relative viability: 0.755
[9]; first compound 0.253 µM
  relative viability: 0.634
[9]; first compound 0.8 µM
  relative viability: 0.611
[9]; first compound 2.53 µM
  relative viability: 0.439
[10]; first compound 0.08 µM
  relative viability: 0.26
[10]; first compound 0.253 µM
  relative viability: 0.298
[10]; first compound 0.8 µM
  relative viability: 0.314
[10]; first compound 2.53 µM
  relative viability: 0.296
[11]; first compound 0.08 µM
  relative viability: 0.525
[11]; first compound 0.253 µM
  relative viability: 0.437
[11]; first compound 0.8 µM
  relative viability: 0.472
[11]; first compound 2.53 µM
  relative viability: 0.349
[12]; first compound 0.08 µM
  relative viability: 0.606
[12]; first compound 0.253 µM
  relative viability: 0.401
[12]; first compound 0.8 µM
  relative viability: 0.498
[12]; first compound 2.53 µM
  relative viability: 0.601
[13]; first compound 0.08 µM
  relative viability: 0.781
[13]; first compound 0.253 µM
  relative viability: 0.614
[13]; first compound 0.8 µM
  relative viability: 0.788
[13]; first compound 2.53 µM
  relative viability: 0.706
[14]; first compound 0.08 µM
  relative viability: 1.02
[14]; first compound 0.8 µM
  relative viability: 0.929
[14]; first compound 2.53 µM
  relative viability: 0.788
[15]; first compound 0.08 µM
  relative viability: 0.147
[15]; first compound 0.253 µM
  relative viability: 0.143
[15]; first compound 0.8 µM
  relative viability: 0.136
[15]; first compound 2.53 µM
  relative viability: 0.13
[16]; first compound 0.08 µM
  relative viability: 0.401
[16]; first compound 0.253 µM
  relative viability: 0.375
[16]; first compound 0.8 µM
  relative viability: 0.426
[16]; first compound 2.53 µM
  relative viability: 0.426
[17]; first compound 0.08 µM
  relative viability: 0.864
[17]; first compound 0.253 µM
  relative viability: 0.797
[17]; first compound 0.8 µM
  relative viability: 0.957
[17]; first compound 2.53 µM
  relative viability: 0.821
[18]; first compound 0.08 µM
  relative viability: 0.396
[18]; first compound 0.253 µM
  relative viability: 0.384
[18]; first compound 0.8 µM
  relative viability: 0.41
[18]; first compound 2.53 µM
  relative viability: 0.409
[19]; first compound 0.08 µM
  relative viability: 0.549
[19]; first compound 0.253 µM
  relative viability: 0.556
[19]; first compound 0.8 µM
  relative viability: 0.53
[19]; first compound 2.53 µM
  relative viability: 0.534
[20]; first compound 0.08 µM
  relative viability: 0.577
[20]; first compound 0.253 µM
  relative viability: 0.499
[20]; first compound 0.8 µM
  relative viability: 0.591
[20]; first compound 2.53 µM
  relative viability: 0.685
[21]; first compound 0.08 µM
  relative viability: 0.597
[21]; first compound 0.253 µM
  relative viability: 0.473
[21]; first compound 0.8 µM
  relative viability: 0.522
[21]; first compound 2.53 µM
  relative viability: 0.434
[22]; first compound 0.08 µM
  relative viability: 0.961
[22]; first compound 0.253 µM
  relative viability: 0.713
[22]; first compound 0.8 µM
  relative viability: 0.904
[22]; first compound 2.53 µM
  relative viability: 0.825

Reference: the supplement of paper PMC10307832
